Where a name gives a salt, the structure may show the parent alone. Read-outs that look alike come from different tables or passages of the source.
Legend:
HTT mRNA = test: RT-qPCR splicing assay, HTT canonical (CJ) and alternative (AJ) junction mRNA; format: cell-based; conditions: Homo sapiens; for IC50: read-out: HTT CJ IC50; for AC50: read-out: HTT AJ AC50
Method in brief: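 Splice-junction mRNAs (CJ, AJ) measured by TaqMan one-step RT-qPCR on cell lysates, using PPIA as reference for adherent A673 and GAPDH or GUSB for K562. Cells exposed for 24 h to 11 threefold concentrations up to 10 uM final, with DMSO at or below 0.25%.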

Target C = test: HiBit protein abundance assay, Target C; format: cell-based; conditions: Homo sapiens; K562 HiBiT-modified cells, 24 hours, luminescence
Protocol: Compounds described herein were used to screen for effects on quantitative protein abundance using a HiBit assay system (Promega). Quantitative protein abundance was determined by measuring the protein levels of HiBit-tagged protein targets expressed in cell culture via luminescence using the Nano-Glo HiBiT Lytic Detection System, which uses a split complementation assay format to reconstitute NanoBiT enzyme to generate a luminescent signal. A protein abundance assay was developed such that endogenous protein targets could be modified with the HiBiT peptide tag and their abundance could be assessed after compound treatment. Briefly, K562 cell lines containing a HiBiT-modification were treated with various compounds described herein (e.g., compounds of Formulas (I), (II), or (III)). After treatment for 24 hours, the protein abundance of a specific target was determined by measuring luminescence. • Promega Nano-Glo HiBiT Lytic Detection System (cat #N3030) • Corning 384-well TC-treated microplates (cat #3570) • Synthego Engineered Cells Knock-In Clones Cells were maintained in IMDM with 10% FBS. Before the assay, cells were diluted with phenolphthalein-free growth media (IMDM+1% FBS media) and were seeded in a 384-well plate at a density of 10000 cells/well (for each cell line listed in Table 6). Each compound was prepared as a 10-point 3-fold serial dilution in DMSO with the top dose at a final concentration of 10 μM in the well. Unmodified K562 cells were added at the previously specified density with DMSO to serve as an assay baseline and positive control (PC) and DMSO only with the respective modified cell lines was added to the negative control (NC) columns. Final DMSO concentration was kept at or below 0.25%. Treated cell plates were placed in an incubator at 37° C. with 5% CO2 for 24 hours. After 24 hours, 25 μL of Complete HiBit Lytic reagent was added to each well at room temperature (e.g. one plate requiring 10 mL Lytic Buffer, 100 μL LgBiT Protein, 200 μL Lytic Substrate), shaken for 5 minutes at 600 RPM, then left to sit for 10 minutes for signal to stabilize before reading on a Spark Cyto plate reader (Tecan) with a 500 ms measurement time. To determine compound effects on protein abundance of each target in Table 6, the percent response for each respective cell line was calculated at each compound concentration as follows: For the normalized response at each concentration, a four-parameter logistical regression was fit to the data and the response was interpolated at the 50% value to determine a concentration for protein abundance at 50% (IC50) the untreated control.

[1] = decrease in CJ mRNA levels, larger panel of genes, Table 3
[2] = decrease in canonical junction mRNA, A673 or K562 cells, 24 hours treatment, Table 2
[3] = increase in alternative junction mRNA, A673 or K562 cells, 24 hours treatment, Table 2

SMILES	IC50 (HTT mRNA; [1]) [nM]	IC50 (HTT mRNA; [2]) [nM]	AC50 (HTT mRNA; [3]) [nM]	IC50 (Target C) [nM]	AC50 (HTT mRNA; 24 h) [nM]	IC50 (HTT mRNA; 24 h) [nM]	IC50 (HTT mRNA) [nM]
Cc1cn2cc(-c3cc(F)c4nn(C5CCNCC5)cc4c3)nc(C)c2n1 [Compound 132, 6-[7-fluoro-2-(4-piperidyl)indazol-5-yl]-2,8-dimethyl-imidazo[1,2-a]pyrazine]	100 to 1000	100 to 1000	100 to 1000	100 to 1000	–	–	–
Cc1nc2ccc(-c3cc(F)c4nn(C5CCNCC5)cc4c3)cc2s1 [Compound 134, 6-(7-fluoro-2-(piperidin-4-yl)-2H-indazol-5-yl)-2-methylbenzo[d]thiazole]	1000 to 10000	1000 to 10000	> 10000	1000 to 10000	–	–	–
Cc1ccc2nc(-c3cc(F)c4nn(C5CCNCC5)cc4c3)ccc2n1 [Compound 157, 2-[7-fluoro-2-(4-piperidyl)indazol-5-yl]-6-methyl-1,5-naphthyridine]	> 10000	> 10000	> 10000	> 10000	–	–	–
Cn1cc2cc(-c3ccc4cn(C5CCNCC5)nc4c3)cc(F)c2n1 [Compound 148, 7-fluoro-2-methyl-5-[2-(4-piperidyl)indazol-6-yl]indazole]	1000 to 10000	1000 to 10000	> 10000	> 10000	–	–	–
Cc1cn2nc(-c3cc(F)c4nn(C5CCNCC5F)cc4c3)cc(C)c2n1 (stereo not shown) [Compound 166, 6-[7-fluoro-2-(3-fluoro-4-piperidyl)indazol-5-yl]-2,8-dimethyl-imidazo [1,2-b]pyridazine]	< 100	< 100	< 100	100 to 1000	–	–	–
Cc1cn2nc(-c3cc(F)c4nn(C5CCN(C)C6(CC6)C5)cc4c3)cc(C)c2n1 (stereo not shown) [Compound 174, 6-[7-fluoro-2-(4-methyl-4-azaspiro[2.5]octan-7-yl)indazol-5-yl]-2,8-dimethyl-imidazo[1,2-b]pyridazine]	< 100	< 100	< 100	< 100	–	–	–
Cc1c(O)c(-c2cc(F)c3nn(C4CCNCC4)cc3c2)cc2cn(C)nc12 [Compound 126, 5-[7-fluoro-2-(4-piperidyl)indazol-5-yl]-2,7-dimethyl-indazol-6-ol]	1000 to 10000	1000 to 10000	> 10000	1000 to 10000	–	–	–
Cc1cn2nc(-c3cc(F)c4nn(C5CCN(CCO)C6(CC6)C5)cc4c3)cc(C)c2n1 (stereo not shown) [Compound 180, 2-[7-[5-(2,8-dimethylimidazo[1,2-b]pyridazin-6-yl)-7-fluoro-indazol-2-yl]-4-azaspiro[2.5]octan-4-yl]ethanol]	–	–	–	< 100	< 100	< 100	< 100
Cc1cn2nc(-c3cc4cn(C5CCNCC5)nc4c(OCc4ccccc4)n3)cc(C)c2n1 [Compound 153, 6-[7-benzyloxy-2-(4-piperidyl)pyrazolo [3,4-c]pyridin-5-yl]-2,8-dimethyl-imidazo[1,2-b]pyridazine]	> 10000	> 10000	1000 to 10000	1000 to 10000	–	–	–
Cc1cn2nc(-c3cc(F)c4nn([C@@H]5CCNC6(CC6)C5)cc4c3)cc(C)c2n1 [Compound 173]	< 100	< 100	< 100	< 100	–	–	–
Cc1cn2nc(-c3cc4cn(C5CCNCC5)nc4cc3O)cc(C)c2n1 [Compound 154, 5-(2,8-dimethylimidazo[1,2-b]pyridazin-6-yl)-2-(piperidin-4-yl)-2H-indazol-6-ol]	< 100	< 100	100 to 1000	< 100	–	–	–
Cc1cn2nc(-c3cc(F)c4nn([C@H]5CCNC[C@@H]5F)cc4c3)cc(C)c2n1 [Compound 167, 6-(7-fluoro-2-((3S,4S)-3-fluoropiperidin-4-yl)-2H-indazol-5-yl)-2,8-dimethylimidazo[1,2-b]pyridazine]	100 to 1000	100 to 1000	100 to 1000	100 to 1000	–	–	–
Cc1cn2nc(-c3cc(F)c4nn(C5CCN(CC6CC6)C6(CC6)C5)cc4c3)cc(C)c2n1 (stereo not shown) [Compound 183, 6-[2-[4-(cyclopropylmethyl)-4-azaspiro[2.5]octan-7-yl]-7-fluoro-indazol-5-yl]-2,8-dimethyl-imidazo[1,2-b]pyridazine]	< 100	< 100	< 100	< 100	–	–	–
COc1cc(-c2cc3cn(C)nc3cc2O)nc2cn(C3CCNCC3)nc12 [Compound 140, 5-[7-methoxy-2-(4-piperidyl)pyrazolo[4,3-b]pyridin-5-yl]-2-methyl-indazol-6-ol]	1000 to 10000	1000 to 10000	1000 to 10000	1000 to 10000	–	–	–
Fc1cc(-c2ccc3cnccc3c2)cc2cn(C3CCNCC3)nc12 [Compound 161, 6-[7-fluoro-2-(4-piperidyl)indazol-5-yl]isoquinoline]	100 to 1000	100 to 1000	1000 to 10000	1000 to 10000	–	–	–
Cc1cn2nc(-c3cc(F)c4nn(C5CCNCC5)cc4c3)cc2c(C)n1 [Compound 124, 2-[7-fluoro-2-(4-piperidyl)indazol-5-yl]-4,6-dimethyl-pyrazolo[1,5-a]pyrazine]	< 100	< 100	< 100	< 100	–	–	–
CCN1CCC(n2cc3cc(-c4cc(C)c5nc(C)cn5n4)cc(F)c3n2)CC1 [Compound 146, 6-[2-(1-ethyl-4-piperidyl)-7-fluoro-indazol-5-yl]-2,8-dimethyl-imidazo[1,2-b]pyridazine]	< 100	< 100	< 100	< 100	–	–	–
Cc1cn2nc(-c3cc(F)c4nn(C5CCN(CCO)CC5)cc4c3)cc(C)c2n1 [Compound 160, 2-[4-[5-(2,8-dimethylimidazo[1,2-b]pyridazin-6-yl)-7-fluoro-indazol-2-yl]-1-piperidyl]ethanol]	–	–	–	< 100	< 100	< 100	< 100
COc1cc2nn(C3CCNCC3)cc2cc1-c1cc(C)c2nc(C)cn2n1 [Compound 159, 6-(6-methoxy-2-(piperidin-4-yl)-2H-indazol-5-yl)-2,8-dimethylimidazo[1,2-b]pyridazine]	> 10000	> 10000	> 10000	> 10000	–	–	–
Cc1cn2nc(-c3cc4cn(C5CCNCC5)nc4cn3)cc(C)c2n1 [Compound 147, 2,8-dimethyl-6-[2-(4-piperidyl)pyrazolo[3,4-c]pyridin-5-yl]imidazo[1,2-b]pyridazine]	100 to 1000	100 to 1000	100 to 1000	100 to 1000	–	–	–
Cc1cn2nc(-c3cc4cn(C5CCNCC5)nc4c(O)n3)cc(C)c2n1 [Compound 139, 5-(2,8-dimethylimidazo[1,2-b]pyridazin-6-yl)-2-(4-piperidyl)-6H-pyrazolo[3,4-c]pyridin-7-one]	< 100	< 100	< 100	100 to 1000	–	–	–
Cc1cn2nc(-c3cc(F)c4nn(C5CCNCC5)cc4c3)cc(C)c2n1 [Compound 122, 6-(7-fluoro-2-(piperidin-4-yl)-2H-indazol-5-yl)-2,8-dimethylimidazo [1,2-b]pyridazine hydrochloride salt]	–	–	–	< 100	< 100	< 100	< 100
